According to patent US20220154156A1, “PROTEINS AND METHODS FOR DISRUPTING BACTERIAL COMMUNICATION” (REGENTS OF THE UNIVERSITY OF MINNESOTA, priority 2019, published 2022):
Where two headings read alike, the source gives them in different places.

Columns and labels:
[1] = system: Geobacillus caldoxylosilyticus GcL (SEQ ID NO: 1) variant GcL 4 (C147S/H178D/L183E/M244A); assay: Lactonase assay of variant GcL 4; format: biochemical; conditions: for catalytic proficiency compared with the wt enzyme: GcL 4 vs GcL wt
Description: (§1) Kinetic measurements. The determination of GcL catalytic efficiency was performed by using a microplate reader (Synergy HTX, BioTek, USA) and the software Gen5.1 over a range of substrates (FIG. 2). The reactions were operate in a 96-well plate at a path length of 5.8 mm for a 200 μl reaction volume at room temperature. The catalytic parameters were achieved by fitting the data to Michaelis-Menten equation with the Graph-Pad Prism 5 software. When, Vmax was not reached, the catalytic efficiency was determined by fitting the linear part of Michaelis-Menten plot to a linear regression using Graph-Pad Prism 5.
(§2) Lactonase assay. The AHL lactonolysis consisting in the opening of the lactone ring generates a proton, and leads to an acidification of the media. This property allowed the characterization of the lactonases by using a pH indicator assay. To perform the experiment 5 μl of enzyme were added to a solution containing 10 μl of substrates at various concentrations and 185 μl of lactonase buffer (2.5 mM Bicine pH 8.3, 150 mM NaCl, 0.2 mM CoCl2, 0.2 mM cresol purple, 0.5% DMSO). This assay was performed at 25° C. and the time course of the lactones hydrolysis was recorded at 577 nm. The characterization of the enzyme was proceeding against a large panel of AHLs: C4-AHL, C6-AHL, C8-AHL, C10-AHL, 3-oxo-C8-AHL and against γ-Butyrolactone, γ-Heptalactone, γ-Nonalactone, γ-Decanolactone, δ-Valerolactone, δ-Octanolactone, δ-Nonalactone, δ-Decalactone, ε-Caprolactone, ε-Decalactone, Whiskey lactone.
We determined the ability of these two variants to hydrolyze a wide range of lactones as substrates, using the assay described in the previous chapter. GcL 4 was assayed against substrates C4 AHIL, C8 AHIL, 3-oxo-C8 AHL, 3-oxo-C12 AHL, γ-Butyrolactone, γ-Nonalactone, γ-Decanolactone, δ-Valerolactone, δ-Octanolactone, δ-Decalactone, ε-Caprolactone, ε-Decalactone and Whiskey Lactone, while GcL […] was assayed against C4 AHL, C8 AHL, 3-oxo-C8 AHL, 3-oxo-C12 AHIL, γ-Butyrolactone, γ-Heptalactone, γ-Nonalactone, γ-Decanolactone, δ-Valerolactone, δ-Nonalactone, δ-Decalactone, ε-Caprolactone, ε-Decalactone and Whiskey Lactone (Table 6).

[2] = system: Geobacillus caldoxylosilyticus GcL (SEQ ID NO: 1) variant GcL 14 (Q41P/S66A/S81A/T91S/R111K/F141/A144T/C147S/V1751/H178D/I182L/L183E/M244A/N245K); assay: Lactonase assay of variant GcL 14; format: biochemical; conditions: for catalytic proficiency compared with the wt enzyme: GcL 14 vs GcL wt
[3] = system: Geobacillus caldoxylosilyticus lactonase GcL, wild type, SEQ ID NO: 1; conditions: cited from earlier work
[4] = system: Geobacillus caldoxylosilyticus lactonase GcL, wild type, SEQ ID NO: 1; assay: Lactonase assay (pH indicator, cresol purple) of GcL wt; format: biochemical; conditions: 25° C., pH 8.3; Table 4, substrates without asterisk
Description: as §1, §2

[5] = system: corrosion tubercles on steel coupons; assay: Biocorrosion of coated steel coupons in Duluth-Superior Harbor water, 8 weeks; set-up: concentration or dose not given beside the values; conditions: silica gel coating, two months in DSH water
Description: The steel coupons were washed with soap water, lightly brushed for a few seconds with a test tube brush, and then rinsed with Milli-Q water to remove any loose material. Each coupon was designated with a unique number and weighed before being randomly assigned to a specific experimental treatment.
Each compound or enzyme was added to 5 ml of the silica gel matrix to develop different coating treatments. These coatings were applied by dipping coupons into the appropriate gel mixture for 1 minute, and then the coating on the coupon surface was air-dried at room temperature for 2 hours.
Six treatments and three controls were investigated for corrosion rate and changes in bacterial communities (Table 10). Each treatment or control contained three replicate steel coupons. After the triplicate steel coupons were coated with each biochemical, enzyme or bacterial treatment, they were incubated in experimental microcosms constructed from 10-gallon glass aquaria (Aqueon Glass, 50.8 cm×25.4 cm×30.5 cm) (FIG. 24). Each microcosm was equipped with an aquarium pump (Aquarium Systems Mini-Jet 404) to constantly circulate the water (˜2 L hr−1), and covered with a piece of acrylic with one corner cut out to allow gas exchange. The coupons were hold with plastic holders and immersed in water taken from the DSH for 8 weeks and then recovered for analyses.
The coupons in each treatment was photographed by the end of the experiment. Biocorrosion was evaluated by the number and coverage of corrosion tubercles, and also by imaging of coupon surfaces with an environmental scanning electron microscope (ESEM). The coupon images were captured with DSLR camera immediately after being removed from the harbor water, and then tubercle numbers and total area in digital images were measured using the analyze menu within ImageJ software (NIH, Bethesda, Md., USA). Surface roughness measurements were also made after the exposed coupons were cleaned with ASTM G1-90 iron and steel chemical cleaning procedure (2 min in 37% HCl, 50 g/L SnCl2). A Hitachi TM-3030 ESEM was used to view details of the cleaned coupon surface and the 3D-View software was used to generate surface roughness measurements (SRa). Statistics analysis (T-tests) of the tubercle numbers, coverage and surface roughness were performed using Microsoft Excel software.

[6] = Enzymatic characterization of SsoPox 6 and SsoPox 19; format: biochemical; conditions: esters, lactones and phosphotriesters; compared with wt
Description: We determined the ability of these two variants to hydrolyze a wide range of substrates, including esters, lactones and phosphotriesters (FIG. 23).

[7] = Paraoxonase activity of SsoPox variants after incubation at 80° C.; format: physicochemical; conditions: compared with wt enzyme and SsoPox W263I
[8] = Table 4, substrates marked *, Data from^17

Molecule	Km ([1]; GcL 4, Table 6) [µM]	kcat ([1]; GcL 4, Table 6) [s⁻¹]	Km ([2]; GcL 14, Table 6) [µM]	kcat ([2]; GcL 14, Table 6) [s⁻¹]	Km [4] [µM]	kcat [4] [s⁻¹]	other results
CCCC(=O)N[C@H]1CCOC1=O [C4-AHL]	0.75 ± 0.24	18.25 ± 0.85	0.92 ± 0.27	15.01 ± 0.61	–	–	Km ([1]; GcL 4): ~1 µM; Km ([2]; GcL 14): ~1 µM; Km [3, 8]: 229 ± 57 µM; kcat [3, 8]: 19.06 ± 1.51 s⁻¹; Km ([3]; wt enzyme, C4 AHL marked * (ref 17) in Table 4): ~230 µM
CCCCCC(=O)CC(=O)N[C@H]1CCOC1=O [3-oxo-C8-AHL]	1.09 ± 0.28	76.4 ± 3.87	0.29 ± 0.08	76.00 ± 4.04	–	–	Km [3, 8]: 2.19 ± 0.37 µM; kcat [3, 8]: 9.48 ± 0.35 s⁻¹
CCCCCCCC(=O)N[C@H]1CCOC1=O [C8-AHL]	0.81 ± 0.2	–	1.32 ± 0.34	18.38 ± 0.86	3.12 ± 0.75	1.29 ± 0.04	–
CCCC1CCCC(=O)O1 (stereo not drawn) [δ-Octanolactone]	1.92 ± 0.54	22.01 ± 1.17	–	–	18.3 ± 7	12.58 ± 0.85	–
CCCCC1CCCC(=O)O1 (stereo not drawn) [δ-Nonalactone]	–	–	9.09 ± 2.2	23.61 ± 1.40	8.05 ± 2.5	2.01 ± 0.14	–
CCCCCC(=O)N[C@H]1CCOC1=O [C6-AHL]	–	–	–	–	–	–	Km [3, 8]: 7.97 ± 1.89 µM; kcat [3, 8]: 8.95 ± 0.48 s⁻¹
CCCCCCCCCC(=O)CC(=O)N[C@H]1CCOC1=O [3-oxo-C12 AHL]	–	–	0.5 ± 0.12	15.88 ± 0.45	–	–	–
[Mg+2].[O-][O-] [magnesium peroxide]	–	–	–	–	–	–	reduction of the number (formation) of corrosion tubercles [5]: 36%
O=C1CCCCO1 [δ-Valerolactone]	3.13 ± 0.1	11.94 ± 1.03	1.12 ± 0.12	22.13 ± 0.41	5.67 ± 0.94	1.27 ± 0.03	–
CCCCCCCCCC(=O)NC1CCOC1=O (stereo not drawn) [C10-AHL]	–	–	–	–	–	–	Km [3, 8]: 1.45 ± 0.47 µM; kcat [3, 8]: 5.48 ± 0.37 s⁻¹
O=C1CCCCCO1 [ε-Caprolactone]	1.3 ± 0.49	12.63 ± 0.95	2.49 ± 0.67	23.74 ± 1.26	10.6 ± 3.2	8.79 ± 0.43	–
CCCCCCC1CCC(=O)O1 (stereo not drawn) [γ-Decanolactone]	1.31 ± 0.28	22.24 ± 1.10	0.32 ± 0.14	13.7 ± 0.73	7.14 ± 1.03	2.69 ± 0.11	–
CCCC1CCC(=O)O1 (stereo not drawn) [γ-Heptalactone]	–	–	2.77 ± 0.53	20.95 ± 0.93	2.01 ± 0.71	1.77 ± 0.06	–
CCCCC1CCCCC(=O)O1 (stereo not drawn) [ε-Decalactone]	1.41 ± 0.3	6.3 ± 0.29	7.98 ± 2.47	10.41 ± 0.85	1.05 ± 0.38	1.01 ± 0.04	catalytic proficiency compared with the wt enzyme [1]: similar; catalytic proficiency compared with the wt enzyme [2]: similar
CCCCC1OC(=O)CC1C (stereo not drawn) [Whiskey lactone]	–	8.4 ± 0.39	14 ± 3.74	7.98 ± 0.63	0.67 ± 0.21	9.34 ± 0.39	catalytic proficiency compared with the wt enzyme [1]: similar; catalytic proficiency compared with the wt enzyme [2]: similar
CCCCCC1CCC(=O)O1 (stereo not drawn) [γ-Nonalactone]	2.54 ± 0.97	18.3 ± 0.90	9.09 ± 2.2	23.61 ± 1.40	11.6 ± 3.1	18.14 ± 0.9	catalytic proficiency compared with the wt enzyme [1]: similar; catalytic proficiency compared with the wt enzyme [2]: similar
CCCCCC1CCCC(=O)O1 (stereo not drawn) [δ-Decalactone]	5.54 ± 0.13	10.28 ± 0.76	0.32 ± 0.14	13.7 ± 0.73	3.13 ± 0.9	4.1 ± 0.18	catalytic proficiency compared with the wt enzyme [1]: similar; catalytic proficiency compared with the wt enzyme [2]: similar
O=C1CCCO1 [γ-Butyrolactone]	1.99 ± 0.45	8.42 ± 0.42	5.9 ± 1.67	9.89 ± 0.75	21.1 ± 7.6	2.49 ± 0.15	–
SsoPox 6: SsoPox variant R2K/S10E/S13P/K14R/V91I/L107N, SEQ ID NO:12 (protein, SsoPox6 variant) MKIPLVGKDEIEPRDIGFTLIHEHLRVFSEAVRQQWPHLYNEDEEFRNAVNEVKRAMQFGVKTIVDPTVMGLGRDIRFMEKVVKATGINLIAGTGIYIYIDLPFYFNNRSIDEIADLFIHDIKEGIQGTLNKAGFVKIAADEPGITKDVEKVIRAAAIANKETKVPIITHSNAHNNTGLEQQRILTEEGVDPGKILIGHLGDTDNIDYIKKIADKGSFIGLDRYGLDLFLPVDKRNETTLRLIKDGYSDKIMISHDYCCTIDWGTAKPEYKPKLAPRWSITLIFEDTIPFLKRNGVNEEVIATIFKENPKKFFS	–	–	–	–	–	–	activity levels [6]: extremely similar to those of the wt enzyme; paraoxon hydrolysis after incubation of different times at 80° C. [7]: withstanding better the incubation at 80 °C than the wt enzyme and SsoPox W263I
